Measurements from patent US8124051B2, “Complex drug delivery composition and method for treating cancer” (priority 2003, dated 2012).
Where no end group is shown, it is not given here.

Key:
[1] = system: A2780 human ovarian carcinoma cells; experiment: Expression of BCL-2, BCL-XL, SMAC, APAF-1, caspase 9 and caspase 3 genes after CPT conjugates; format: cell-based; conditions: 48-hour incubation
Protocol: The expression of genes encoding antiapoptotic members of the BCL-2 protein family (BCL-2 and BCL-XL), caspase activators (SMAC and APAF-1), caspase 9 (apoptosis inhibitor) and caspase 3 (apoptosis executor) as well as the activity of the caspases was measured after a 48-hour incubation of A2780 human ovarian carcinoma cells with CPT, CPT-PEG, CPT-PEG-BH3, or CPT-PEG-LHRH conjugates.
Gene expression. A combination of reverse transcription (RT) and polymerase chain reaction (PCR) was used for the analysis of gene expression as described (Minko, et al. (1999) J. Controlled Rel. 59:133-148). Briefly, total cellular RNA was isolated using an RNeasy kit (QIAGEN,™, Valencia, Calif.) and a […] ™ micro-spin homogenizer (QIAGEN). First-strand cDNA was synthesized by Ready-To-Go You-Prime First-Strand Beads (Amersham Biosciences, Piscataway, N.J.) according to the manufacturer's instructions with 2 μg of total cellular RNA (from 1×10^7 cells) and 100 ng of random hexadeoxynucleotide primer (Amersham Biosciences, Piscataway, N.J.). After synthesis, the reaction mixture was diluted 1:3 with water and immediately subjected to PCR, which was carried out using GenAmp PCR System 2400 (Perkin Elmer Instruments, Shelton, Conn.). […]

[2] = system: human ovarian carcinoma cells; experiment: Apoptosis and BCL-2 expression after DOX (cell death ELISA, RT-PCR); format: cell-based
Description: (§1) It has been shown that prolonged exposure or high concentrations of anticancer drugs leads to the development of drug resistance (Minko, et al. (2001) Dis. Manag. Clin. Outcomes 3:48-54; Minko, et al. (1999) J. Controlled Rel. 59:133-148; Pakunlu (2003) Pharm. Res. 20:351-359; Minko, et al. (1999) Pharm. Res. 16:986-996; Minko, et al. (2001) J. Control. Rel. 71:227-237). To analyze antiapoptotic resistance, the degree of apoptosis to doxorubicin (DOX), a traditional, well-established anticancer drug, was determined. The enrichment of cell lysate and media by mono- and oligonucleosomes was measured using a cell death detection ELISA kit. The expression of genes was measured by reverse transcription PCR (RT-PCR) using β2-microglobulin (β2-m) as an internal standard. […] Similar results were obtained after repeated incubation of human ovarian carcinoma cells with low doses of DOX (Minko, et al. (1999) supra; Minko, et al. (1999) supra) and after treatment of mice xenografts of ovarian carcinoma cells with DOX. […] Thus, suppression of this antiapoptotic cellular defense mechanism is desirable.

[3] = healthy tissues and tumor; cited from earlier work
[4] = system: xenografts of ovarian carcinoma cells; experiment: DOX treatment of mice xenografts of ovarian carcinoma cells; format: in vivo; conditions: up to 25 days of treatment
Description: as §1

[5] = system: human ovarian carcinoma cells; experiment: Cytotoxicity (IC50 dose) of Ant, Ant-BH3 peptide and DOX; format: cell-based; conditions: Ovarian carcinoma cell; human ovarian carcinoma cells
Protocol: (§2) By way of example, the effectiveness of a BH3 peptide ([…] SEQ ID NO:1) to increase cell death by inducing the mitochondrial dysfunction leading to necrosis was measured. BH3 peptide was delivered into human ovarian carcinoma cells by the Antennapedia (Ant) internalization sequence (Arg-Gln-Ile-lys-[…] SEQ ID NO:2). Mitochondrial function was assessed by flow cytometry analysis using the lipophilic cationic fluorescent probe 5,5′,6,6′-tetrachloro-1,1′,3,3′-tetraethylbenzimidazolcarbo-cyanine iodide (JC-1). This probe exists as a monomer, and upon excitation at 490 nm, emits light at 527 nm resulting in green fluorescence. At high mitochondrial transmembrane potential, JC-1 forms multimers, known as J-aggregates, and emits light at 590 nm upon excitation at 490 nm resulting in red fluorescence. Therefore, the red/green fluorescence ratio measured by flow cytometry reflects the number of functioning mitochondria. […] The effect of the Ant-BH3 peptide on mitochondrial transmembrane potential was also determined.
Cytotoxicity. The cytotoxicity of drugs were assessed using a modified MTT (3-(4,5-dimethylthiazol-2-yl)-2,5-diphenyltetrazolium bromide) assay (Kunath, et al. (2000) Eur. J. Pharm. Biopharm 49:11-15; Minko, et al. (1998) J. Controlled Rel. 54:223-233; Minko, et al. (1999) J. Controlled Rel. 59:133-148; Minko, et al. (2002) Cancer Chemother. Pharmacol. 50:143-150). […]

[6] = system: A2780 human ovarian carcinoma cells; experiment: RT-PCR expression of caspases, APAF-1 and SMAC; format: cell-based
Protocol: The effect of the LHRH-BH3 peptide on apoptosis was analyzed by measuring transcriptional and translational levels and activity of human caspases. […] Active caspase 9, in turn, activates a cascade of downstream caspases, as evidenced by increased expression levels, which subsequently leads to induction of apoptosis.
Cystein aspartate-specific proteases (caspases). Three approaches were used to analyze the role of each of the human caspases in the apoptosis induction. First, the expression of genes encoding human caspases 1-10 and the Apoptotic Protease Activating Factor (APAF-1) and Second Mitochondria-Derived Activator of Caspase (SMAC) were studied by RT-PCR (Minko, et al. (1999) supra; Minko, et al. (2000) supra). […] Therefore, in addition to the measurement of the gene expression, the amount of active caspases and activity of the enzymes was measured. The amount of active caspases was estimated by western blot analysis. The activity of expressed caspases was measured using the Caspase Protease Assay kit (MBL International, Watertown, Mass.) or a colorimetric protease assay kit (PanVera, Madison, Wis.) (Minko, et al. (2001) supra). Cells were separately incubated with the conjugates for 48 hours. The assay colormetric assay is based on the spectrophotometric detection of the chromophore p-nitroanilide (pNA) after cleavage from the substrate, X-pNA. An increase in caspase activity was determined by comparing levels in cells exposed to conjugates to levels in cells of the untreated control incubated with saline.
(§3) Gene expression. A combination of reverse transcription (RT) and polymerase chain reaction (PCR) was used for the analysis of gene expression as described (Minko, et al. (1999) J. Controlled Rel. 59:133-148). Briefly, total cellular RNA was isolated using an RNeasy kit (QIAGEN,™, Valencia, Calif.) and a […]™ micro-spin homogenizer (QIAGEN). First-strand cDNA was synthesized by Ready-To-Go You-Prime First-Strand Beads (Amersham Biosciences, Piscataway, N.J.) according to the manufacturer's instructions with 2 μg of total cellular RNA (from 1×10^7 cells) and 100 ng of random hexadeoxynucleotide primer (Amersham Biosciences, Piscataway, N.J.). After synthesis, the reaction mixture was diluted 1:3 with water and immediately subjected to PCR, which was carried out using GenAmp PCR System 2400 (Perkin Elmer Instruments, Shelton, Conn.). The pairs of primers used to amplify each type of cDNA and PCR regimes are well-known in the art (Kunath, et al. (2000) supra; Minko, et al. (2003) supra; Minko, et al. (2002) supra; Minko, et al. (1999) supra; Minko, et al. (2000) supra; Minko, et al. (2001) supra). PCR products were separated in 4% NUSIEVE® 3:1 RELIANT® agarose gels (BMA, East Rutherford, N.J.) in 1×TBE buffer (0.089 M Tris/Borate, 0.002 M EDTA, pH 8.3) by submarine electrophoresis. The gels were stained with ethidium bromide and digitally photographed. To calculate the size and amount of PCR products, a Low DNA Mass ladder (GibcoBRL, Carlsbad, Calif.) was used. β2-microglobulin was used as an internal standard and to confirm the efficacy of PCR (Kunath, et al. (2000) supra; Minko, et al. (2001) supra).

[7] = system: human ovarian carcinoma cells; experiment: Mitochondrial transmembrane potential, JC-1 probe, flow cytometry; format: cell-based; conditions: JC-1 red/green fluorescence ratio
Protocol: as §2, with “mitochondria. Ant alone was not toxic up to the highest possible concentration (1 mg/mL). In contrast, the combination of Ant with BH3 peptide led to a significant increase in toxicity of the peptide.” for “mitochondria.”

[8] = system: genes encoding proapoptotic members of the BCL-2 protein family; experiment: RT-PCR expression of genes encoding proapoptotic members of the BCL-2 protein family; format: cell-based, human; conditions: 48 hours, IC50 dose of Ant-BH3 peptide; β2-m internal standard
Protocol: (§4) The influence of BH3 peptide, delivered by an Ant-BH3 fusion peptide, on the expression of proteins and genes encoding proapoptotic and antiapoptotic members of the BCL-2 protein family was determined. The expression of genes was measured by RT-PCR using β2-m as an internal standard.
(§5) Cell death signaling pathways. To characterize the cell death signaling pathways, the expression of p53, c-fos, c-jun, proapoptotic (BAD, BAX, BCL-G, BCL-W, BCL-XS, BID, BIK, BIM, BNIP 1-3, HARAKIR1, MSL-1S, NIX) and antiapoptotic (BCL-2, AVEN, BAG, BCL-XL, BFL, DAD1, MSL-1) members of BCL-2 family of proteins and genes encoding these proteins were measured by western blot analysis and RT-PCR, respectively using well-established methods known to those of skill in the art.
as §3

[9] = system: cancer cells not expressing LHRHR; experiment: Cytotoxicity in LHRHR-negative cancer cells; format: cell-based
Protocol: (§6) In contrast, LHRH-BH3 peptide was not toxic in cancer cells not expressing LHRHR. Further, non-targeted Ant-BH3 peptide was toxic in both LHRHR-positive and negative cancer cells. […] Thus, the LHRH peptide specifically targets cancer cells expressing the LHRHR and facilitates the uptake of LHRH-conjugates.
(§7) Cytotoxicity. The cytotoxicity of drugs were assessed using a modified MTT (3-(4,5-dimethylthiazol-2-yl)-2,5-diphenyltetrazolium bromide) assay (Kunath, et al. (2000) Eur. J. Pharm. Biopharm 49:11-15; Minko, et al. (1998) J. Controlled Rel. 54:223-233; Minko, et al. (1999) J. Controlled Rel. 59:133-148; Minko, et al. (2002) Cancer Chemother. Pharmacol. 50:143-150). To measure cytotoxicity, cells were incubated in a 96-well microtiter plate with 45 different equivalent concentrations of CPT ranging from […] in a complex conjugate. Six wells were used for control cells. The duration of incubation was varied from 3 to 72 hours to find an optimal range of incubation time for each complex conjugate.

[10] = system: LHRHR-positive A2780 human ovarian carcinoma cells; experiment: Cytotoxicity, modified MTT assay; format: cell-based; conditions: LHRHR-positive cancer cells; up to the highest possible concentration
Protocol: as §6
Cytotoxicity of CPT, CPT-PEG, CPT-PEG-BH3, and CPT-PEG-LHRH conjugates and the combination of CPT-PEG-BH3 with CPT-PEG-LHRH conjugates was analyzed using a modified MTT assay (Minko, et al. (1998) supra) in sensitive A2780 and multidrug resistant A2780/AD human ovarian carcinoma cells.
as §7

[11] = system: genes encoding antiapoptotic members of the BCL-2 protein family; experiment: RT-PCR expression of genes encoding antiapoptotic members of the BCL-2 protein family; format: cell-based, human; conditions: 48 hours, IC50 dose of Ant-BH3 peptide; β2-m internal standard
Protocol: as §4, §5, §3

[12] = A2780, 48 hours, IC50 dose of peptide, ratio of band intensity to β2-m internal standard

Molecule: CC[C@@]1(O)C(=O)OCc2c1cc1n(c2=O)Cc2cc3ccccc3nc2-1 [CPT, camptothecin]
- activation of caspase-dependent apoptosis pathway and cellular antiapoptotic defense (gene expression) [1]: activated both caspase-dependent pathways of apoptosis and cellular antiapoptotic defense

Molecule: COc1cccc2c1C(=O)c1c(O)c3c(c(O)c1C2=O)C[C@@](O)(C(=O)CO)C[C@@H]3O[C@H]1C[C@H](N)[C@H](O)[C@H](C)O1 [DOX, doxorubicin]
- cell response ([2]; cells that survived exposure to high DOX concentrations): overexpressed the BCL-2 gene and developed resistance to apoptosis
- cell response ([2]; low DOX concentrations): responded to the treatment by apoptosis
- tissue accumulation [3]: significant amount of free DOX accumulation in healthy tissues
- tumor size [4]: decreased the tumor size
- IC50 [5]: 0.484 ± 0.0364 µM

Molecule: RQIKIWFQNRRMKWKKMGQVGRQLAIIGDDINRRY [Ant-BH3]
- Mean Gene Expression ± SD: APAF-1 [6, 12]: 78 ± 3
- Mean Gene Expression ± SD: Caspase 2 [6, 12]: 134 ± 5
- Mean Gene Expression ± SD: Caspase 3 [6, 12]: 60 ± 5
- Mean Gene Expression ± SD: Caspase 6 [6, 12]: 77 ± 5
- Mean Gene Expression ± SD: Caspase 7 [6, 12]: 88 ± 8
- Mean Gene Expression ± SD: Caspase 8 [6, 12]: 70 ± 6
- Mean Gene Expression ± SD: Caspase 9 [6, 12]: 126 ± 11
- Mean Gene Expression ± SD: Caspase 10 [6, 12]: 48 ± 3
- Mean Gene Expression ± SD: SMAC [6, 12]: 77 ± 2
- expression of APAF-1 and SMAC ([6]; A2780 cells): up-regulation
- changes in mitochondrial membrane potential [7]: did not lead to statistically significant changes
- Expression, % of Control: BAD [8]: 90 ± 8 % of Control
- Expression, % of Control: BAX [8]: 91 ± 9 % of Control
- Expression, % of Control: BCL-G [8]: 87 ± 11 % of Control
- Expression, % of Control: BCL-XS [8]: 168 ± 11 % of Control
- Expression, % of Control: BID [8]: 99 ± 9 % of Control
- Expression, % of Control: BIK [8]: 511 ± 42 % of Control
- Expression, % of Control: BIM [8]: 114 ± 17 % of Control
- Expression, % of Control: BNIP-1 [8]: 93 ± 8 % of Control
- Expression, % of Control: BNIP-2 [8]: 173 ± 14 % of Control
- Expression, % of Control: BNIP-3 [8]: 69 ± 6 % of Control
- Expression, % of Control: HRK [8]: 88 ± 10 % of Control
- Expression, % of Control: MLS-1S [8]: 130 ± 11 % of Control
- Expression, % of Control: NIX [8]: 89 ± 10 % of Control
- toxicity [9]: toxic
- toxicity [10]: toxic
- Expression, % of Control: AVEN [11]: 78 ± 2 % of Control
- Expression, % of Control: BAG [11]: 56 ± 5 % of Control
- Expression, % of Control: BCL-2 [11]: 66 ± 7 % of Control
- Expression, % of Control: BCL-W [11]: 97 ± 8 % of Control
- Expression, % of Control: BCL-XL [11]: 64 ± 3 % of Control
- Expression, % of Control: BFL [11]: 70 ± 2 % of Control
- Expression, % of Control: DAD-1 [11]: 99 ± 5 % of Control
- Expression, % of Control: MCL-1L [11]: 108 ± 8 % of Control
